Assay results: patent US8604280B2, “Glyphosate tolerant perennial ryegrass named ‘replay’” (J.R. Simplot Company, priority 2009, dated 2013)

Tested on: perennial ryegrass 96-3047
Assay: Glyphosate applied at termination of the Maryland turf trial, plot survival
Format: in vivo, Lolium perenne L.
Conditions: glyphosate at 2-quarts per acre; plot 96-3047, Maryland trial, 1999; only plot in the trial not killed
From the text: ‘Replay’ was developed from a greenhouse cross made in 1992 of perennial ryegrass ‘APM’ (registered, Reg. No. CV-185, PI 565096) pollinated by perennial ryegrass ‘Birdie II’ (registered, Reg. No. 133, PI 537452) in Post Falls, Id. Progeny of this cross was planted in a 1992 spaced-plant nursery in Post Falls, Id., and designated as 92-0226. An open-pollinated selection from this population, designated as 93-0736, was harvested and planted in company turf trials in Post Falls, Id., and Poolesville, Md., in 1993. In 1995, plugs of 93-0736 were pulled from the Maryland plot based on the desirable characteristics of dark green color and turf performance, and then planted in a spaced-plant nursery in Post Falls, Id. In 1996, the perennial ryegrass 96-3047 was selected from this population and planted in company turf trials in both Post Falls, Id., and Poolesville, Md.
In 1999, during the termination of the Maryland trial, 96-3047 was the only plot in the trial that was not killed when glyphosate at the rate of 2-quarts per acre was applied. Survival in the plot was estimated at 30% and plugs were pulled, coded as 99-0089, and 200 plants of 99-0089 were planted in an isolation block in the 1999 Post Falls, Id. nursery.

For O=C(O)CNCP(=O)(O)O [glyphosate, N-(phosphonomethyl) glycine], the “Survival in the plot” value was roughly 30%.
